Assay results taken from PMC11062922 (Nature Chemical Biology, 2023).

Key:
[1] = biological target: T1, CLK1 (Homo sapiens, UniProt P49759); assay: Kinobeads competition binding: CLK1; details: target CLK1
T1 construct: endogenous in cells

[2] = tested on: CLK2; assay: Kinobeads competition binding: CLK2; parameters: species or system human; details: target CLK2
[3] = biological target: T2, PIP4K2C (Homo sapiens, UniProt Q8TBX8); assay: Kinobeads competition binding: PIP4K2C; details: target PIP4K2C
T2 construct: a mixture of lysates from five cancer cell lines; endogenous in cells
T2 sequence (Q8TBX8 1-421): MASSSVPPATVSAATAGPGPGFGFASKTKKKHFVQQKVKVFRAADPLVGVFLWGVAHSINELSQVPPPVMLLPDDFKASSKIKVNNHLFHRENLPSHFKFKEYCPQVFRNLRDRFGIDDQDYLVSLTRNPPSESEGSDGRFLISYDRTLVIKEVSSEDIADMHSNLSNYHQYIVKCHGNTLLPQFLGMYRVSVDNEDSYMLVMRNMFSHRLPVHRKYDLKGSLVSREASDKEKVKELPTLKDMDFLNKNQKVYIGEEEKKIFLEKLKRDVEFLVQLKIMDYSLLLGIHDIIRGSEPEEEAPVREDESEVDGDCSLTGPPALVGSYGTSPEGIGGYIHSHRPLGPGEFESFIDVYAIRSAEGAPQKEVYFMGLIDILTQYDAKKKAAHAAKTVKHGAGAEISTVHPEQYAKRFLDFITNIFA
Excerpt: Supplement 41589_2023_1459_MOESM4_ESM.xlsx, sheet "CATDS matrix" | column: PIP4K2C

[4] = tested on: MAP2K5; assay: Kinobeads competition binding: MAP2K5; parameters: species or system human; details: target MAP2K5
[5] = biological target: T3, ADCK1 (Homo sapiens, UniProt Q86TW2); assay: Kinobeads competition binding: ADCK1; details: target ADCK1
T3 construct: endogenous in cells
T3 sequence (Q86TW2 1-530): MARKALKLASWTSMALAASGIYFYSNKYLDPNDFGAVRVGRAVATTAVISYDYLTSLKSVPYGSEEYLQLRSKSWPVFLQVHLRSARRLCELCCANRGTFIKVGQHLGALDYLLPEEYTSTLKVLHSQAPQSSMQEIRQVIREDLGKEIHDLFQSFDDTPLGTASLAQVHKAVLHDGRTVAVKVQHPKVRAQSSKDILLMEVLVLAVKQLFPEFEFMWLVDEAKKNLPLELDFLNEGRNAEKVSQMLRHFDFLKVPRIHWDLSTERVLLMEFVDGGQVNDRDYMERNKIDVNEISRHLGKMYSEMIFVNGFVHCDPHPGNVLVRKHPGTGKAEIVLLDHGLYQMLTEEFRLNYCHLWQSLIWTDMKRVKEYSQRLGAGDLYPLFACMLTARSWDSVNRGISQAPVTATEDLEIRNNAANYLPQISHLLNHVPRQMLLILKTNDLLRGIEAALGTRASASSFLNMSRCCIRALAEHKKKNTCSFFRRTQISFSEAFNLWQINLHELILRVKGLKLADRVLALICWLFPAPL
Excerpt: Supplement 41589_2023_1459_MOESM4_ESM.xlsx, sheet "CATDS matrix" | column: ADCK1

[6] = tested on: ERBB3; assay: Kinobeads competition binding: ERBB3; parameters: species or system human; details: target ERBB3;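 note: selectivity score: engagement of this protein divided by summed engagement of all targets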
[7] = tested on: CDK1; assay: Kinobeads competition binding: CDK1; parameters: species or system human; details: target CDK1
[8] = biological target: T4, PAK4 (Homo sapiens, UniProt O96013); assay: Kinobeads competition binding: PAK4; details: target PAK4
T4 construct: a mixture of lysates from five cancer cell lines; endogenous in cells
Excerpt: Supplement 41589_2023_1459_MOESM4_ESM.xlsx, sheet "CATDS matrix" | column: PAK4

[9] = tested on: MAP3K11; assay: Kinobeads competition binding: MAP3K11; parameters: species or system human; details: target MAP3K11
[10] = tested on: NEK9; assay: Kinobeads competition binding: NEK9; parameters: species or system human; details: target NEK9
[11] = biological target: T5, FRK (Homo sapiens, UniProt P42685); assay: Kinobeads competition binding: FRK; details: target FRK
T5 construct: endogenous in cells
Excerpt: Supplement 41589_2023_1459_MOESM4_ESM.xlsx, sheet "CATDS matrix" | column: FRK

[12] = biological target: T6, NTRK1 (Homo sapiens, UniProt P04629); assay: Kinobeads competition binding: NTRK1; details: target NTRK1
T6 construct: endogenous in cells

[13] = biological target: T7, EPHA4 (Homo sapiens, UniProt P54764); assay: Kinobeads competition binding: EPHA4; details: target EPHA4
T7 construct: endogenous in cells
Excerpt: Supplement 41589_2023_1459_MOESM4_ESM.xlsx, sheet "CATDS matrix" | column: EPHA4

[14] = biological target: T8, ERN1 (Homo sapiens, UniProt O75460); assay: Kinobeads competition binding: ERN1; details: target ERN1
T8 construct: endogenous in cells
Excerpt: Supplement 41589_2023_1459_MOESM4_ESM.xlsx, sheet "CATDS matrix" | column: ERN1

[15] = tested on: FECH; assay: Kinobeads competition binding: FECH; parameters: species or system human; details: target FECH

T8 sequence (O75460 19-977): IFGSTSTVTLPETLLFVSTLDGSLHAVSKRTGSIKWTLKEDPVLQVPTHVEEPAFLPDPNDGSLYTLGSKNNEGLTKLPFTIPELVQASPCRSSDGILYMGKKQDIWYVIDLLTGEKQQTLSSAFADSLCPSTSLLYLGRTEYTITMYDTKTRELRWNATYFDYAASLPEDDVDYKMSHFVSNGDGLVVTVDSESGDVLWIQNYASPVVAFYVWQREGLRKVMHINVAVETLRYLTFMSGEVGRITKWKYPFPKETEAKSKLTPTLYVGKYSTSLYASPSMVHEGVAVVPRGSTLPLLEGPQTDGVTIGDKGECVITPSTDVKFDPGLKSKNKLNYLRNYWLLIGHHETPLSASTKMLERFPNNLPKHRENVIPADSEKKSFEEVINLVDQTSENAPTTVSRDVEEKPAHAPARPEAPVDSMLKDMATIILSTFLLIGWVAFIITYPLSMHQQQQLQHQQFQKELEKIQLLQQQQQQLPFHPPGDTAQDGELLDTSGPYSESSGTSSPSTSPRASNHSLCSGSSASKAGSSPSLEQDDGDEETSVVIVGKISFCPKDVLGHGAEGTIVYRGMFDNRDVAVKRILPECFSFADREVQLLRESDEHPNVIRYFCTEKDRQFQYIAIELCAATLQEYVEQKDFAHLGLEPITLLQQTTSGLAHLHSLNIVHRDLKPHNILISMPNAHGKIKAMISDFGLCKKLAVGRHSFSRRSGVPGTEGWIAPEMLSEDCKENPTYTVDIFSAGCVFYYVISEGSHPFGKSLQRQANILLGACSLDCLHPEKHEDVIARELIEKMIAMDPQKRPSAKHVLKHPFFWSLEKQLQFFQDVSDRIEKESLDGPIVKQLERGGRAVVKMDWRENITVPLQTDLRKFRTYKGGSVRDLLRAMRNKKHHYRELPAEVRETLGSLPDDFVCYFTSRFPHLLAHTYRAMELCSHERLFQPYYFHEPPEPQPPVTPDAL
T6 sequence (P04629 33-796): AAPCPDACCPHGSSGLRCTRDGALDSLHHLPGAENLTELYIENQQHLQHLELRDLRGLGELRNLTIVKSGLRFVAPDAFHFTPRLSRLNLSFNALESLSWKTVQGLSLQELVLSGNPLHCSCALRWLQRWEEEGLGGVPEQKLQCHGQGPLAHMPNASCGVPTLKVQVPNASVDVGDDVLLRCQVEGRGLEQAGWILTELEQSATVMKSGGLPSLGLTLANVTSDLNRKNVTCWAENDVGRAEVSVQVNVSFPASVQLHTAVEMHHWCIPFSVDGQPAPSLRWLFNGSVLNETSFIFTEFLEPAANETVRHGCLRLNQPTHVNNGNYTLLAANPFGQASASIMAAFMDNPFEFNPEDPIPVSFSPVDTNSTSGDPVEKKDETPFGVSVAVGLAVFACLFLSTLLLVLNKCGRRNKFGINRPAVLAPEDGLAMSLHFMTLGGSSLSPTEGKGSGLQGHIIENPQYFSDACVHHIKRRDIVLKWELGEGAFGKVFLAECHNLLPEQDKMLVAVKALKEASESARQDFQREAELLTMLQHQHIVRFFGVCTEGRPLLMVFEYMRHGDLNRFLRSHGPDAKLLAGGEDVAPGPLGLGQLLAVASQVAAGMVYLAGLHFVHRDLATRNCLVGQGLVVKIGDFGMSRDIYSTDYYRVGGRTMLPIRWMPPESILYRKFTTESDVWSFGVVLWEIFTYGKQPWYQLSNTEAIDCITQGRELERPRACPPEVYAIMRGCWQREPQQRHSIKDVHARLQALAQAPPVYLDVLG
T5 sequence (P42685 whole entry): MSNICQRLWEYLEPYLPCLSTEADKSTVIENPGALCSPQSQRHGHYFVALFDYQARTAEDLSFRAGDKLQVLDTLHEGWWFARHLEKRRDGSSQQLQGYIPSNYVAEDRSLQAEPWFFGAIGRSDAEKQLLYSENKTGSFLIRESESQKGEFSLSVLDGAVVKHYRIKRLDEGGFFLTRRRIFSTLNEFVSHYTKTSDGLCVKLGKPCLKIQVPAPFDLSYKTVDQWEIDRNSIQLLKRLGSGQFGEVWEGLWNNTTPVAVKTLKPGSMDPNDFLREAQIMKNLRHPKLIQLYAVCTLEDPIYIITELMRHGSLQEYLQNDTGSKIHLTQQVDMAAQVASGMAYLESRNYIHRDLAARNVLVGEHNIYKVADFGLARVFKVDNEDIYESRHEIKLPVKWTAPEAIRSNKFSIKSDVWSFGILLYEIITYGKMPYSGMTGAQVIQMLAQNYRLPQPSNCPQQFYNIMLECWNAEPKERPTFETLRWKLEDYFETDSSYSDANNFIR
T1 sequence (P49759 whole entry): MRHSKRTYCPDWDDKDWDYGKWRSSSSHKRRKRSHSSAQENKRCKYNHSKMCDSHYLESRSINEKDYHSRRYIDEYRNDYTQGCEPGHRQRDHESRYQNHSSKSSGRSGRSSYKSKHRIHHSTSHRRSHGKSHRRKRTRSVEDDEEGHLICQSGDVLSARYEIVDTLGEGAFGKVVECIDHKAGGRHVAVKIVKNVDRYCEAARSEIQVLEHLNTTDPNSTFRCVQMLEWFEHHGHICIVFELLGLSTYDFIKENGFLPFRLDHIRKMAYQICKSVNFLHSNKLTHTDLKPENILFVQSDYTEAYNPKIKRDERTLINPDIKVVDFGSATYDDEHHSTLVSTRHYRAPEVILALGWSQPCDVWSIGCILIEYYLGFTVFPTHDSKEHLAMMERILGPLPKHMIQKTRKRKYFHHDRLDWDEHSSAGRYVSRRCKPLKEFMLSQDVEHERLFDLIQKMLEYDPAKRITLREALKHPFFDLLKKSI
T4 sequence (O96013 whole entry): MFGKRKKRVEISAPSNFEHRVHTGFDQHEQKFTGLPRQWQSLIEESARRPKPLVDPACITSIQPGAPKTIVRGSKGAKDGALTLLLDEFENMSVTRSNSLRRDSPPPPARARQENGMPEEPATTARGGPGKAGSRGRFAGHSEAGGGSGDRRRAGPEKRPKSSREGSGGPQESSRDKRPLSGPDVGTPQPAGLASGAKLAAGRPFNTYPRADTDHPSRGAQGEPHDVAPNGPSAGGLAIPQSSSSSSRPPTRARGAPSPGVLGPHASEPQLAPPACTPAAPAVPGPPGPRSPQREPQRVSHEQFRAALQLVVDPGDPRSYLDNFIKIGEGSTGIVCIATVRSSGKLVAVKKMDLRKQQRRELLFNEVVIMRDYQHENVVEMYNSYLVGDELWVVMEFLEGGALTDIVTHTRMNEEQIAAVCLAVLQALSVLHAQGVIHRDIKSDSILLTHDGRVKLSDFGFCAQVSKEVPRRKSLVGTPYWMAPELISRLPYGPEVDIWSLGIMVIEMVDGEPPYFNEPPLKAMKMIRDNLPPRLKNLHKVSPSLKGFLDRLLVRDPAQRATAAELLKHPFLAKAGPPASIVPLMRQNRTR
T7 sequence (P54764 20-986): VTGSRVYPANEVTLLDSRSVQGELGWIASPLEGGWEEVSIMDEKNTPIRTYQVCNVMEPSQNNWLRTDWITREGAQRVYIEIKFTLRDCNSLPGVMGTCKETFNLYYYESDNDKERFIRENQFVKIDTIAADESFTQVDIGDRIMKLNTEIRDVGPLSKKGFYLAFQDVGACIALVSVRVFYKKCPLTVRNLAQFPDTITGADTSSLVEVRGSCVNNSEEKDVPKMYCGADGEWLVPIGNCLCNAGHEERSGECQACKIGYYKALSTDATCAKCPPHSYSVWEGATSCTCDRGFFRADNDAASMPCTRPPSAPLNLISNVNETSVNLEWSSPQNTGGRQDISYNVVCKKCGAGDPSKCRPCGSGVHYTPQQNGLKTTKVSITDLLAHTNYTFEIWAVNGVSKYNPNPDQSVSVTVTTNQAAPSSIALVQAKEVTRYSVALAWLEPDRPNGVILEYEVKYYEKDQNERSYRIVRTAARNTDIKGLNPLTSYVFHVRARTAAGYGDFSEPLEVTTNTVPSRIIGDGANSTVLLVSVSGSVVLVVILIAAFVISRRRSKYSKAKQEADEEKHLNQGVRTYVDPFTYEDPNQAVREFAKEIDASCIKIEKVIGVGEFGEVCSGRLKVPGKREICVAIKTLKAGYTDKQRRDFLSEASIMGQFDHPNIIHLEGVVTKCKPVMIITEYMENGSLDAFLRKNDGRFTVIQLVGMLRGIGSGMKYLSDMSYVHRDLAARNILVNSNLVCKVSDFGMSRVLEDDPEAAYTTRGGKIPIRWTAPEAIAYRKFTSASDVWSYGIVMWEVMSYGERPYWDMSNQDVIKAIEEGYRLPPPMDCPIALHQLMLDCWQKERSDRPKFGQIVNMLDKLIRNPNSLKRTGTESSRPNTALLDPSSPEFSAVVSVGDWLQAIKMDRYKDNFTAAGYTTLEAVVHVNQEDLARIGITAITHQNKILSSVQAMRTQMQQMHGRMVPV

CCc1cc2c(cc1N1CCC(N3CCOCC3)CC1)C(C)(C)c1[nH]c3cc(C#N)ccc3c1C2=O [Alectinib]
CATDS [1]: 0 | CATDS [2]: 0 | CATDS [3]: 0 | CATDS [4]: 0 | CATDS [5]: 0 | CATDS [6]: 0 | CATDS [7]: 0 | CATDS [8]: 0 | CATDS [9]: 0 | CATDS [10]: 0 | CATDS [11]: 0 | CATDS [12]: 0 | CATDS [13]: 0 | CATDS [14]: 0 | CATDS [15]: 0

CCN1CCN(Cc2ccc(Nc3ncc(F)c(-c4cc(F)c5nc(C)n(C(C)C)c5c4)n3)nc2)CC1 [Abemaciclib]
CATDS [2]: 0 | CATDS [3]: 0 | CATDS [4]: 0 | CATDS [5]: 0.02486 | CATDS [6]: 0 | CATDS [8]: 0 | CATDS [9]: 0 | CATDS [10]: 0 | CATDS [11]: 0 | CATDS [12]: 0 | CATDS [13]: 0 | CATDS [14]: 0 | CATDS [15]: 0

Nc1ncnc2[nH]c(-c3ccccc3)nc12 [AH5015_KCGS]
CATDS [1]: 0 | CATDS [2]: 0 | CATDS [3]: 0 | CATDS [4]: 0 | CATDS [5]: 0 | CATDS [6]: 0 | CATDS [7]: 0 | CATDS [8]: 0 | CATDS [9]: 0 | CATDS [10]: 0 | CATDS [11]: 0 | CATDS [12]: 0 | CATDS [13]: 0 | CATDS [14]: 0 | CATDS [15]: 0

N#CC1(c2ccc(NC(=O)c3cccnc3NCc3ccncc3)cc2)CCCC1 [Apatinib]
CATDS [1]: 0 | CATDS [2]: 0 | CATDS [3]: 0 | CATDS [4]: 0 | CATDS [5]: 0 | CATDS [6]: 0 | CATDS [7]: 0 | CATDS [8]: 0 | CATDS [9]: 0 | CATDS [10]: 0 | CATDS [11]: 0 | CATDS [12]: 0 | CATDS [13]: 0 | CATDS [14]: 0 | CATDS [15]: 0

CN(C)C/C=C/C(=O)Nc1cc2c(Nc3ccc(F)c(Cl)c3)ncnc2cc1O[C@H]1CCOC1 [Afatinib]
CATDS [3]: 0 | CATDS [5]: 0 | CATDS [8]: 0 | CATDS [11]: 0 | CATDS [13]: 0 | CATDS [14]: 0 | CATDS [15]: 0
